Measurements reported in patent US12226409B2, “Treatment of hepatocellular carcinoma” (Eisai R&D Management Co., Ltd., priority 2017, dated 2025).

Tested on: patients with unresectable HCC
Assay: Open-label phase 3 study, safety and side-effect profile (CTCAE v4.0)
From the text: Randomization was stratified according to region (Asia-Pacific or Western regions), macroscopic portal vein invasion and/or extrahepatic spread (yes or no), Eastern Cooperative Oncology Group performance status (0 or 1), and body weight (<60 kg or ≥60 kg).
Safety assessments included recording of vital signs, hematologic and biochemical laboratory testing, urinalysis, and electrocardiography.

SMILES: COc1cc2nccc(Oc3ccc(NC(=O)NC4CC4)c(Cl)c3)c2cc1C(N)=O [Lenvatinib, 4-(3-chloro-4(cyclopropylaminocarbonyl)aminophenoxy)-7-methoxy-6-quinolinecarboxamide]
- TEAE: Decreased appetite (8 mg per day): 33.1%
- TEAE: Diarrhea (8 mg per day): 35.1%
- TEAE: Hypertension (8 mg per day): 43.0%
- TEAE: decreased weight (8 mg per day): 28.5%
- Dose reduction/interruption: Abdominal pain (8 mg starting dose): 2 (1.3) n (%)
- Dose reduction/interruption: Abdominal pain upper (8 mg starting dose): 2 (1.3) n (%)
- Dose reduction/interruption: Alanine aminotransferase increased (8 mg starting dose): 2 (1.3) n (%)
- Dose reduction/interruption: Anemia (8 mg starting dose): 2 (1.3) n (%)
- Dose reduction/interruption: Ascites (8 mg starting dose): 3 (2.0) n (%)
- Dose reduction/interruption: Aspartate aminotransferase increased (8 mg starting dose): 4 (2.6) n (%)
- Dose reduction/interruption: Asthenia (8 mg starting dose): 3 (2.0) n (%)
- Dose reduction/interruption: Blood and lymphatic system disorders (8 mg starting dose): 5 (3.3) n (%)
- Dose reduction/interruption: Blood bilirubin increased (8 mg starting dose): 8 (5.3) n (%)
- Dose reduction/interruption: Decreased appetite (8 mg starting dose): 15 (9.9) n (%)
- Dose reduction/interruption: Dehydration (8 mg starting dose): 3 (2.0) n (%)
- Dose reduction/interruption: Diarrhea (8 mg starting dose): 8 (5.3) n (%)
- Dose reduction/interruption: Dyspnea (8 mg starting dose): 2 (1.3) n (%)
- Dose reduction/interruption: Edema peripheral (8 mg starting dose): 2 (1.3) n (%)
- Dose reduction/interruption: Esophageal varices hemorrhage (8 mg starting dose): 0 (0.0) n (%)
- Dose reduction/interruption: Fatigue (8 mg starting dose): 5 (3.3) n (%)
- Dose reduction/interruption: Gamma-glutamyltransferase increased (8 mg starting dose): 1 (0.7) n (%)
- Dose reduction/interruption: Gastrointestinal disorders (8 mg starting dose): 22 (14.6) n (%)
- Dose reduction/interruption: General disorders and administration site conditions (8 mg starting dose): 17 (11.3) n (%)
- Dose reduction/interruption: Hepatic encephalopathy (8 mg starting dose): 4 (2.6) n (%)
- Dose reduction/interruption: Hepatic function abnormal (8 mg starting dose): 0 (0.0) n (%)
- Dose reduction/interruption: Hepatobiliary disorders (8 mg starting dose): 2 (1.3) n (%)
- Dose reduction/interruption: Hypertension (8 mg starting dose): 3 (2.0) n (%)
- Dose reduction/interruption: Hyponatremia (8 mg starting dose): 2 (1.3) n (%)
- Dose reduction/interruption: Investigations (8 mg starting dose): 24 (15.9) n (%)
- Dose reduction/interruption: Malaise (8 mg starting dose): 2 (1.3) n (%)
- Dose reduction/interruption: Metabolism and nutrition disorders (8 mg starting dose): 21 (13.9) n (%)
- Dose reduction/interruption: Musculoskeletal and connective tissue disorders (8 mg starting dose): 4 (2.6) n (%)
- Dose reduction/interruption: Myalgia (8 mg starting dose): 1 (0.7) n (%)
- Dose reduction/interruption: Nausea (8 mg starting dose): 2 (1.3) n (%)
- Dose reduction/interruption: Nervous system disorders (8 mg starting dose): 7 (4.6) n (%)
- Dose reduction/interruption: Neutropenia (8 mg starting dose): 0 (0.0) n (%)
- Dose reduction/interruption: Neutrophil count decreased (8 mg starting dose): 4 (2.6) n (%)
- Dose reduction/interruption: Palmar-plantar erythrodysesthesia syndrome (8 mg starting dose): 4 (2.6) n (%)
- Dose reduction/interruption: Platelet count decreased (8 mg starting dose): 9 (6.0) n (%)
- Dose reduction/interruption: Proteinuria (8 mg starting dose): 4 (2.6) n (%)
- Dose reduction/interruption: Pyrexia (8 mg starting dose): 4 (2.6) n (%)
- Dose reduction/interruption: Rash (8 mg starting dose): 0 (0.0) n (%)
- Dose reduction/interruption: Rash maculo-papular (8 mg starting dose): 0 (0.0) n (%)
- Dose reduction/interruption: Renal and urinary disorders (8 mg starting dose): 5 (3.3) n (%)
- Dose reduction/interruption: Respiratory, thoracic and mediastinal disorders (8 mg starting dose): 4 (2.6) n (%)
- Dose reduction/interruption: Skin and subcutaneous tissue disorders (8 mg starting dose): 5 (3.3) n (%)
- Dose reduction/interruption: Stomatitis (8 mg starting dose): 2 (1.3) n (%)
- Dose reduction/interruption: Thrombocytopenia (8 mg starting dose): 2 (1.3) n (%)
- Dose reduction/interruption: Vascular disorders (8 mg starting dose): 3 (2.0) n (%)
- Dose reduction/interruption: Vomiting (8 mg starting dose): 1 (0.7) n (%)
- Dose reduction/interruption: Weight decreased (8 mg starting dose): 3 (2.0) n (%)
- Dose reduction/interruption: White blood cell count decreased (8 mg starting dose): 3 (2.0) n (%)
- Subjects with Any TEAEs (8 mg starting dose): 151 (100.0) n (%)
- Subjects with any TEAEs leading to Dose Reduction or Interruption (8 mg starting dose): 81 (53.6) n (%)
- TEAE: Abdominal pain (8 mg starting dose): 19 (12.6) n (%)
- TEAE: Abdominal pain upper (8 mg starting dose): 21 (13.9) n (%)
- TEAE: Alanine aminotransferase increased (8 mg starting dose): 17 (11.3) n (%)
- TEAE: Alopecia (8 mg starting dose): 5 (3.3) n (%)
- TEAE: Ascites (8 mg starting dose): 21 (13.9) n (%)
- TEAE: Aspartate aminotransferase increased (8 mg starting dose): 21 (13.9) n (%)
- TEAE: Asthenia (8 mg starting dose): 14 (9.3) n (%)
- TEAE: Back pain (8 mg starting dose): 11 (7.3) n (%)
- TEAE: Blood bilirubin increased (8 mg starting dose): 23 (15.2) n (%)
- TEAE: Constipation (8 mg starting dose): 19 (12.6) n (%)
- TEAE: Decreased appetite (8 mg starting dose): 50 (33.1) n (%)
- TEAE: Diarrhea (8 mg starting dose): 53 (35.1) n (%)
- TEAE: Dysphonia (8 mg starting dose): 28 (18.5) n (%)
- TEAE: Edema peripheral (8 mg starting dose): 23 (15.2) n (%)
- TEAE: Fatigue (8 mg starting dose): 42 (27.8) n (%)
- TEAE: Hypertension (8 mg starting dose): 65 (43.0) n (%)
- TEAE: Hypothyroidism (8 mg starting dose): 25 (16.6) n (%)
- TEAE: Nausea (8 mg starting dose): 24 (15.9) n (%)
- TEAE: Palmar-plantar erythrodysesthesia syndrome (8 mg starting dose): 35 (23.2) n (%)
- TEAE: Platelet count decreased (8 mg starting dose): 26 (17.2) n (%)
- TEAE: Proteinuria (8 mg starting dose): 37 (24.5) n (%)
- TEAE: Pyrexia (8 mg starting dose): 24 (15.9) n (%)
- TEAE: Rash (8 mg starting dose): 18 (11.9) n (%)
- TEAE: Stomatitis (8 mg starting dose): 11 (7.3) n (%)
- TEAE: Vomiting (8 mg starting dose): 22 (14.6) n (%)
- TEAE: Weight decreased (8 mg starting dose): 43 (28.5) n (%)
- TEAE: Decreased appetite (12 mg per day): 34.5%
- TEAE: Diarrhea (12 mg per day): 40.3%
- TEAE: Hypertension (12 mg per day): 41.8%
- TEAE: decreased weight (12 mg per day): 32.0%
- Dose reduction/interruption: Abdominal pain (12 mg starting dose): 4 (1.2) n (%)
- Dose reduction/interruption: Abdominal pain upper (12 mg starting dose): 3 (0.9) n (%)
- Dose reduction/interruption: Alanine aminotransferase increased (12 mg starting dose): 4 (1.2) n (%)
- Dose reduction/interruption: Anemia (12 mg starting dose): 1 (0.3) n (%)
- Dose reduction/interruption: Ascites (12 mg starting dose): 7 (2.2) n (%)
- Dose reduction/interruption: Aspartate aminotransferase increased (12 mg starting dose): 5 (1.5) n (%)
- Dose reduction/interruption: Asthenia (12 mg starting dose): 13 (4.0) n (%)
- Dose reduction/interruption: Blood and lymphatic system disorders (12 mg starting dose): 11 (3.4) n (%)
- Dose reduction/interruption: Blood bilirubin increased (12 mg starting dose): 12 (3.7) n (%)
- Dose reduction/interruption: Decreased appetite (12 mg starting dose): 21 (6.5) n (%)
- Dose reduction/interruption: Dehydration (12 mg starting dose): 3 (0.9) n (%)
- Dose reduction/interruption: Diarrhea (12 mg starting dose): 28 (8.6) n (%)
- Dose reduction/interruption: Dyspnea (12 mg starting dose): 6 (1.8) n (%)
- Dose reduction/interruption: Edema peripheral (12 mg starting dose): 4 (1.2) n (%)
- Dose reduction/interruption: Esophageal varices hemorrhage (12 mg starting dose): 5 (1.5) n (%)
- Dose reduction/interruption: Fatigue (12 mg starting dose): 22 (6.8) n (%)
- Dose reduction/interruption: Gamma-glutamyltransferase increased (12 mg starting dose): 6 (1.8) n (%)
- Dose reduction/interruption: Gastrointestinal disorders (12 mg starting dose): 65 (20.0) n (%)
- Dose reduction/interruption: General disorders and administration site conditions (12 mg starting dose): 50 (15.4) n (%)
- Dose reduction/interruption: Hepatic encephalopathy (12 mg starting dose): 16 (4.9) n (%)
- Dose reduction/interruption: Hepatic function abnormal (12 mg starting dose): 2 (0.6) n (%)
- Dose reduction/interruption: Hepatobiliary disorders (12 mg starting dose): 25 (7.7) n (%)
- Dose reduction/interruption: Hypertension (12 mg starting dose): 26 (8.0) n (%)
- Dose reduction/interruption: Hyponatremia (12 mg starting dose): 3 (0.9) n (%)
- Dose reduction/interruption: Investigations (12 mg starting dose): 57 (17.5) n (%)
- Dose reduction/interruption: Malaise (12 mg starting dose): 3 (0.9) n (%)
- Dose reduction/interruption: Metabolism and nutrition disorders (12 mg starting dose): 31 (9.5) n (%)
- Dose reduction/interruption: Musculoskeletal and connective tissue disorders (12 mg starting dose): 14 (4.3) n (%)
- Dose reduction/interruption: Myalgia (12 mg starting dose): 4 (1.2) n (%)
- Dose reduction/interruption: Nausea (12 mg starting dose): 14 (4.3) n (%)
- Dose reduction/interruption: Nervous system disorders (12 mg starting dose): 28 (8.6) n (%)
- Dose reduction/interruption: Neutropenia (12 mg starting dose): 6 (1.8) n (%)
- Dose reduction/interruption: Neutrophil count decreased (12 mg starting dose): 7 (2.2) n (%)
- Dose reduction/interruption: Palmar-plantar erythrodysesthesia syndrome (12 mg starting dose): 21 (6.5) n (%)
- Dose reduction/interruption: Platelet count decreased (12 mg starting dose): 13 (4.0) n (%)
- Dose reduction/interruption: Proteinuria (12 mg starting dose): 29 (8.9) n (%)
- Dose reduction/interruption: Pyrexia (12 mg starting dose): 8 (2.5) n (%)
- Dose reduction/interruption: Rash (12 mg starting dose): 2 (0.6) n (%)
- Dose reduction/interruption: Rash maculo-papular (12 mg starting dose): 0 (0.0) n (%)
- Dose reduction/interruption: Renal and urinary disorders (12 mg starting dose): 35 (10.8) n (%)
- Dose reduction/interruption: Respiratory, thoracic and mediastinal disorders (12 mg starting dose): 12 (3.7) n (%)
- Dose reduction/interruption: Skin and subcutaneous tissue disorders (12 mg starting dose): 23 (7.1) n (%)
- Dose reduction/interruption: Stomatitis (12 mg starting dose): 4 (1.2) n (%)
- Dose reduction/interruption: Thrombocytopenia (12 mg starting dose): 4 (1.2) n (%)
- Dose reduction/interruption: Vascular disorders (12 mg starting dose): 30 (9.2) n (%)
- Dose reduction/interruption: Vomiting (12 mg starting dose): 11 (3.4) n (%)
- Dose reduction/interruption: Weight decreased (12 mg starting dose): 17 (5.2) n (%)
- Dose reduction/interruption: White blood cell count decreased (12 mg starting dose): 3 (0.9) n (%)
- Subjects with Any TEAEs (12 mg starting dose): 319 (98.2) n (%)
- Subjects with any TEAEs leading to Dose Reduction or Interruption (12 mg starting dose): 213 (65.5) n (%)
- TEAE: Abdominal pain (12 mg starting dose): 62 (19.1) n (%)
- TEAE: Abdominal pain upper (12 mg starting dose): 37 (11.4) n (%)
- TEAE: Alanine aminotransferase increased (12 mg starting dose): 36 (11.1) n (%)
